ChEMBL document CHEMBL1138430, “Novel tetrahydroisoquinolines are histamine H3 antagonists and serotonin reuptake inhibitors” (Bioorg Med Chem Lett, 2007)
Activity calls are given as the source filed them. No cut-off for these calls is given here.

Assays:
[1] = target: Mu-type opioid receptor (Homo sapiens) (UniProt P35372); assay: Binding affinity at MOP receptor at 1 uM
[2] = target: T1, Alpha-1A adrenergic receptor (Homo sapiens) (UniProt P35348); assay: Binding affinity at adrenergic alpha-1 receptor at 1 uM
T1 sequence (whole entry): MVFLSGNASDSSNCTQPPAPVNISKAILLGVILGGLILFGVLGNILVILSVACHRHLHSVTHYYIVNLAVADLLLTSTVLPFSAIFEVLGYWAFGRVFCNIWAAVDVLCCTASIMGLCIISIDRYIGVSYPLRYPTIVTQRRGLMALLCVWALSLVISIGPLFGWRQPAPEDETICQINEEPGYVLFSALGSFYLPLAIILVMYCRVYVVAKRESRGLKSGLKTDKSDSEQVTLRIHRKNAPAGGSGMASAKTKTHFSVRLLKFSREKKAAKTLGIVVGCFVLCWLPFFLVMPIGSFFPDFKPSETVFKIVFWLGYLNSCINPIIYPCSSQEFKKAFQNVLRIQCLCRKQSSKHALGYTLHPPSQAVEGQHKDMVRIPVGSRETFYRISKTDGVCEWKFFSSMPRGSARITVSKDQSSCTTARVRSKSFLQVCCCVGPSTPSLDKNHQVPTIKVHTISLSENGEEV

[3] = target: D(1A) dopamine receptor (Homo sapiens) (UniProt P21728); assay: Binding affinity at dopamine D1 receptor at 1 uM
Sequence of D(1A) dopamine receptor (Homo sapiens) (P21728 whole entry): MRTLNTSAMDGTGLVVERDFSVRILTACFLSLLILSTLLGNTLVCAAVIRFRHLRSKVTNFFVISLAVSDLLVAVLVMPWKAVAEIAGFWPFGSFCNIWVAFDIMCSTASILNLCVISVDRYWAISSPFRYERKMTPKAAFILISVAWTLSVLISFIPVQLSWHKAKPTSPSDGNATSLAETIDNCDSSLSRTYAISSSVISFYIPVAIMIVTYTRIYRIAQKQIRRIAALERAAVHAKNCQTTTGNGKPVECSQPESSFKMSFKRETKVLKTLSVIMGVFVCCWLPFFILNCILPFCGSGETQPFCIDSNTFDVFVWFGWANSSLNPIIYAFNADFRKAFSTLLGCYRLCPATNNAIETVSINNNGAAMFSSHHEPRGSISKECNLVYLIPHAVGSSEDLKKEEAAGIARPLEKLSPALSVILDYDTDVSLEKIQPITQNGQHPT

[4] = target: T2, Muscarinic acetylcholine receptor M1 (Homo sapiens) (UniProt P11229); assay: Binding affinity at muscarinic M1 receptor at 1 uM
T2 sequence (whole entry): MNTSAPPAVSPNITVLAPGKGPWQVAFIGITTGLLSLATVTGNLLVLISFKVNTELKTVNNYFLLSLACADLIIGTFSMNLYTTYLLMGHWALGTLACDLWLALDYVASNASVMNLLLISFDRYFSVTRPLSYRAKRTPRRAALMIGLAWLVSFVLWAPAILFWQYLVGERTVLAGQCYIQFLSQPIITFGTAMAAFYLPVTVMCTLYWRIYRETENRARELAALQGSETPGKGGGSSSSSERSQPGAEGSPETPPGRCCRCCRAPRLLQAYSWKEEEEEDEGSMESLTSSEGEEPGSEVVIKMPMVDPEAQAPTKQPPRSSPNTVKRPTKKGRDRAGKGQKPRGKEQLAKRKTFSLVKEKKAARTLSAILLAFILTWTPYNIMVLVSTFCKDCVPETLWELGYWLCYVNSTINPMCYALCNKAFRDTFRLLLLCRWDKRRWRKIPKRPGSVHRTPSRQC

[5] = target: Adenosine receptor A2a (Homo sapiens) (UniProt P29274); assay: Binding affinity at adenosine A2A receptor at 1 uM
Sequence of Adenosine receptor A2a (Homo sapiens) (P29274 whole entry): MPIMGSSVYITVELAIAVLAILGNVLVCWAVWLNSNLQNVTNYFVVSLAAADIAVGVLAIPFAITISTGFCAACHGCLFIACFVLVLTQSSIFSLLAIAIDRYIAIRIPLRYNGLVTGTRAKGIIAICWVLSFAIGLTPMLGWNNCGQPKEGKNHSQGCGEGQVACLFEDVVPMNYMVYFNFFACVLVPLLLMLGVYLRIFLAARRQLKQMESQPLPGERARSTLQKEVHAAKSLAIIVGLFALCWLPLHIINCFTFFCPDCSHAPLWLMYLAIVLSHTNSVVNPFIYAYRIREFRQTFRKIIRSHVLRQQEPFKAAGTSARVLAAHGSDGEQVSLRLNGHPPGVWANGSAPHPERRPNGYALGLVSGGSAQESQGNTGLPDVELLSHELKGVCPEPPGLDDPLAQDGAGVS

[6] = target: 5-hydroxytryptamine receptor 5A (Homo sapiens) (UniProt P47898); assay: Binding affinity at 5HT5A receptor at 1 uM
Sequence of 5-hydroxytryptamine receptor 5A (Homo sapiens) (P47898 whole entry): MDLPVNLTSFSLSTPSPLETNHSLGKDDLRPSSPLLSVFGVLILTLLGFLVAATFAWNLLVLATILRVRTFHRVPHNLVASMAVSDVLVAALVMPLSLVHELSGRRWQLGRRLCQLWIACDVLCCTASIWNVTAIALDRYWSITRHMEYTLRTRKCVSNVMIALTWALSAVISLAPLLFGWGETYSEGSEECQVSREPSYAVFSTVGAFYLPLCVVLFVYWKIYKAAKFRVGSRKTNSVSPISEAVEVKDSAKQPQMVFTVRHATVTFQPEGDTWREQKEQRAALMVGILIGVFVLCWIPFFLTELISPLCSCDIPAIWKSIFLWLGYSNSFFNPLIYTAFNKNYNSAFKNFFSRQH

[7] = target: T3, Neuromedin-K receptor (Homo sapiens) (UniProt P29371); assay: Binding affinity at NK3 receptor at 1 uM
T3 sequence (whole entry): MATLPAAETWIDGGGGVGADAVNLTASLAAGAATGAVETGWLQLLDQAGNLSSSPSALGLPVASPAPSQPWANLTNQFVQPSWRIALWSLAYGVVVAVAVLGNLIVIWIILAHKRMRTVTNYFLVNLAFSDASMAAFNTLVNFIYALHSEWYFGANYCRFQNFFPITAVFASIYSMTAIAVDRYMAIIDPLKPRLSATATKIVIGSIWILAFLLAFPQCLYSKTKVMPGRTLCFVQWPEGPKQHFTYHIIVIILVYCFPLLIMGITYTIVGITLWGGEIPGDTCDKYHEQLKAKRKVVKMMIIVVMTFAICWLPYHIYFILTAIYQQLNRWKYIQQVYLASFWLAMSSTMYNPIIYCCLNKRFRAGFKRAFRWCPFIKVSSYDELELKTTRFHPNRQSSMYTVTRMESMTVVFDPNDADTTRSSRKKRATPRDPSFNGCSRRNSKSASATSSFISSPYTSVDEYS

[8] = target: Beta-1 adrenergic receptor (Homo sapiens) (UniProt P08588); assay: Binding affinity at adrenergic beta-1 receptor at 1 uM
Sequence of Beta-1 adrenergic receptor (Homo sapiens) (P08588 whole entry, looked up): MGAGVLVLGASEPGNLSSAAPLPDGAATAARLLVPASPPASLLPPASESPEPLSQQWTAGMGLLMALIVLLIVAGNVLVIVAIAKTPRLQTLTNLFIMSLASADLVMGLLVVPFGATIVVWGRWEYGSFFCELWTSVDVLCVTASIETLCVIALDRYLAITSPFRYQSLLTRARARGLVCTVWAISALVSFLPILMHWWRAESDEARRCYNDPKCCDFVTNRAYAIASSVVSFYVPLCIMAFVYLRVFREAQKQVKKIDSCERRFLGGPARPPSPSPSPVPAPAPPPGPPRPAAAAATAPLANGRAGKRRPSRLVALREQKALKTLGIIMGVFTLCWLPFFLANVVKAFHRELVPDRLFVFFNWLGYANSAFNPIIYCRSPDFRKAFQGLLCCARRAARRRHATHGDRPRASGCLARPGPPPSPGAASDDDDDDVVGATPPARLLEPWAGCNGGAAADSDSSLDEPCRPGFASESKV

[9] = target: T4, Type-1 angiotensin II receptor (Homo sapiens) (UniProt P30556); assay: Binding affinity at AT1 receptor at 1 uM
T4 sequence (whole entry): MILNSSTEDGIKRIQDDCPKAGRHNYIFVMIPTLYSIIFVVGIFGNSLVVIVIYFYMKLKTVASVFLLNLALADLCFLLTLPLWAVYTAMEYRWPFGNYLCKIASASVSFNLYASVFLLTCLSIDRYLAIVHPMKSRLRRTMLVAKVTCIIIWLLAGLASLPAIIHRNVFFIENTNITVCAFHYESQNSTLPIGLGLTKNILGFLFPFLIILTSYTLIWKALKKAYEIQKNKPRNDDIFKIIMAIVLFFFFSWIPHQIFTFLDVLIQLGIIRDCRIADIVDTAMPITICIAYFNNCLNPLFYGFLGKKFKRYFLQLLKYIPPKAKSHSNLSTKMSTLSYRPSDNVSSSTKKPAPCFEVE

[10] = target: T5, Substance-K receptor (Homo sapiens) (UniProt P21452); assay: Binding affinity at NK2 receptor at 1 uM
T5 sequence (whole entry): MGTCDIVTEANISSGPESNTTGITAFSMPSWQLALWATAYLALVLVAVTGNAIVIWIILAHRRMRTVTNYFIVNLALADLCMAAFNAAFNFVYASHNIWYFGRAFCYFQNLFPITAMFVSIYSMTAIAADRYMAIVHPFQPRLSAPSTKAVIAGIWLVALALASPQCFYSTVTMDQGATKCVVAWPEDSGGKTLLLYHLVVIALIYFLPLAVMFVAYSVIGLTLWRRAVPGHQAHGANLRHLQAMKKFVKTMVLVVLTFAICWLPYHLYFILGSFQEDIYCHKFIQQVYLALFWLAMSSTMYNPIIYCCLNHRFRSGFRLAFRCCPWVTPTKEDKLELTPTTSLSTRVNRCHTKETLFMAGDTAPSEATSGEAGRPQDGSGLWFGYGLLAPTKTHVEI

[11] = target: Kappa-type opioid receptor (Homo sapiens) (UniProt P41145); assay: Binding affinity at KOP receptor at 1 uM
Sequence of Kappa-type opioid receptor (Homo sapiens) (P41145 whole entry): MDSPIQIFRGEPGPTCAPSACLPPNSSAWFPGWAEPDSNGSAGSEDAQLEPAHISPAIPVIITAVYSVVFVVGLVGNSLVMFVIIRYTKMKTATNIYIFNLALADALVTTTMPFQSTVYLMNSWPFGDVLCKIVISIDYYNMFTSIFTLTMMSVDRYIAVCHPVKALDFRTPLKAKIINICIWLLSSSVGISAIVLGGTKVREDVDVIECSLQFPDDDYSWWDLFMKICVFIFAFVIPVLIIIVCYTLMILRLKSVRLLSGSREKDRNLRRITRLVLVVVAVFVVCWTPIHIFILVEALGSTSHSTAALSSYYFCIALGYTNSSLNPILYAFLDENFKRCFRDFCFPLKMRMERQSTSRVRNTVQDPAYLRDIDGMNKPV

[12] = target: Delta-type opioid receptor (Homo sapiens) (UniProt P41143); assay: Binding affinity at DOP receptor at 1 uM
Sequence of Delta-type opioid receptor (Homo sapiens) (P41143 whole entry): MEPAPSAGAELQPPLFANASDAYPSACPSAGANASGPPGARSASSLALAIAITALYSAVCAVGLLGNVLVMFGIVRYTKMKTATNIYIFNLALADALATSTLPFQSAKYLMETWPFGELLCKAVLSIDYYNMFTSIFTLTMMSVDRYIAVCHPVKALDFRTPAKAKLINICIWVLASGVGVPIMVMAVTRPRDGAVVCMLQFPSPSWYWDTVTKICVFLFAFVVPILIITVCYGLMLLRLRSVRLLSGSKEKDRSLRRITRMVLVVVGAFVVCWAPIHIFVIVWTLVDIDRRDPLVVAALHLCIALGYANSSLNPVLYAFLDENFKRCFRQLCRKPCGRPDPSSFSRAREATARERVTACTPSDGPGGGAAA

Sequence of Mu-type opioid receptor (Homo sapiens) (P35372 whole entry): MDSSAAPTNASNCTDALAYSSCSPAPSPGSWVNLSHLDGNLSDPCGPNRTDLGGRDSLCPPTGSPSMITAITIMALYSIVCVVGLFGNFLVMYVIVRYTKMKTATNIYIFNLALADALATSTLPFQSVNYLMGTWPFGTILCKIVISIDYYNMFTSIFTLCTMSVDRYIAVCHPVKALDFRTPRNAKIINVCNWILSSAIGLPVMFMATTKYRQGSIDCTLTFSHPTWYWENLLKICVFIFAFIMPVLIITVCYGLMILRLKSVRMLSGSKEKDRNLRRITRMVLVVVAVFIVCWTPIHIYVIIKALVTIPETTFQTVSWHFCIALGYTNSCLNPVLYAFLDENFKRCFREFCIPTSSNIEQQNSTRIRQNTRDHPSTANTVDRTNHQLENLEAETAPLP

Activity [1] | Activity [2] | Activity [3] | Activity [4] | Activity [5] | Activity [6] | Activity [7] | Activity [8] | Activity [9] | Activity [10] | Activity [11] | Activity [12] | Compound
inactive | inactive | inactive | inactive | inactive | inactive | inactive | inactive | inactive | inactive | inactive | inactive | COc1ccc([C@@H]2CN(C)Cc3cc(OCCCN4CCOC[C@@H]4C)ccc32)cc1
inactive | inactive | inactive | inactive | inactive | inactive | inactive | inactive | inactive | inactive | inactive | inactive | CSc1ccc(C2CN(C)Cc3cc(OCCCN4CCC(F)CC4)ccc32)cc1 (racemic)
inactive | inactive | inactive | inactive | inactive | inactive | inactive | inactive | inactive | inactive | inactive | inactive | CSc1ccc(C2CN(C)Cc3cc(OCCCN4CCOCC4)ccc32)cc1 (racemic)
